Source: US9957230B2, “Synergistic compositions” (Cadila Healthcare Limited, priority 2013, dated 2018)

Key:
[1] = tested on: Swiss albino mice; experiment: Triglyceride lowering effects of various salts in Swiss albino mice; type: in vivo; conditions: dose equivalent to 1 mg/kg free acid; for Serum triglycerides (mg/dl) Day 0: Day 0 (pretreatment); for Serum triglycerides (mg/dl) Day 0 / Serum triglycerides (mg/dl) Day 6: male Swiss albino mice; for Serum triglycerides (mg/dl) Day 6: Day 6, one hr after dose; for % Change Vs control: serum triglycerides vs vehicle control after 6 days; for % Change Day 6 vs Day 0: serum triglycerides
Description: Comparative Efficacy Study of (Triglyceride Lowering Effects) of Various Salts of Compound (Ia) in Swiss Albino Mice.
The in-vivo efficacy of compound (I) was evaluated in Swiss albino mice. Anti-dyslipidemic drugs have been reported to lower circulating levels of triglyceride in Swiss albino mice through their effect on genes involved in the peroxisomal fatty acid beta oxidation via PPAR alpha agonism. Therefore, this species is preferred for evaluation of their efficacy in lowering circulating triglyceride (TG) levels.
In this experiment, six to eight week old male Swiss albino mice were issued and kept for acclimatization. Near the end of the acclimatization period, animals judged to be suitable for testing were bled under light ether anesthesia and serum samples were analyzed for Serum triglyceride levels.
Test compound was formulated at specified doses in vehicle (10% Polyethylene glycol (PEG) 400+90% of 0.5% Sodium Carboxy methyl cellulose). The animals were dosed orally, once daily in the morning during six days, starting from next day of grouping with vehicle or test compound. The animals were weighed prior to dosing, and based on these weights; the volume of administration was calculated. The volume of formulation administered to each mouse was 10 ml/kg body weight.
On day 6 one hr after the dose administration, blood (0.25 ml) was collected from retro-orbital sinus of the anaesthetized animals. Serum was separated by centrifugation. Serum was analyzed for triglyceride levels. Analysis for serum triglyceride levels was performed using a Spectrophotometer and commercially available kit. Calculations for determination of % change and % reduction in serum TG levels were performed using MS Excels sheet.

[2] = tested on: db/db mice; experiment: Oral glucose tolerance test in db/db mice (studies I and II); type: in vivo; conditions: Table 12, Compound (Ia) 0.1 mg/kg, Metformin 150 mg/kg p.o.
Text: 8. […] 8. The treatment was given oral gavages once daily for 14 days.
The OGTT procedure followed is as given below—

[3] = Table 5, oral once daily 6 days
[4] = Table 3, oral once daily 6 days

| Compound | Serum triglycerides (mg/dl) Day 0 [1, 3] [mg/dL] | Serum triglycerides (mg/dl) Day 6 [1, 3] [mg/dL] | % Change Vs control ([1]; Table 5, oral) [%] | % Change Day 6 vs Day 0 [1, 3] [%] | Serum triglycerides (mg/dl) Day 0 ([1]; Table 7, po once daily 6 days) [mg/dL] | Serum triglycerides (mg/dl) Day 6 ([1]; Table 7, po once daily 6 days) [mg/dL] | % Change Vs control ([1]; Table 7, po) [%] | % Change Day 6 vs Day 0 ([1]; Table 7, po once daily 6 days) [%] | also measured |
| --- | --- | --- | --- | --- | --- | --- | --- | --- | --- |
| CCO[C@@H](Cc1ccc(OCCn2c(C)ccc2-c2ccc(SC)cc2)cc1)C(=O)O.c1ccc(CCNCc2ccccc2)cc1 [Benethamine salt of Formula (I), (S) 2-Ethoxy-3-(4-{2-[2-methyl-5-(4-methylthiophenyl)-pyrrol-1-yl]-ethoxy}-phenyl)-propionic acid Benethamine salt] | 91.6 ± 6.4 | 56.0 ± 4.9 | −41.6 ± 5.4 | −38.3 ± 5.7 | – | – | – | – | – |
| CCO[C@@H](Cc1ccc(OCCn2c(C)ccc2-c2ccc(SC)cc2)cc1)C(=O)[O-].C[N+](C)(C)CCO [Choline salt of Formula (I), Choline Salt (i.e 2-Hydroxy-N,N,N-trimethylethanaminium hydroxide or choline hydroxide) of (S) 2-Ethoxy-3-(4-{2-[2-methyl-5-(4-methylthiophenyl)-pyrrol-1-ylethoxyphenylpropionic acid] | – | – | – | – | 110.9 ± 7.7 | 47.6 ± 3.4 | −51.0 ± 4.8 | −56.0 ± 4.3 | – |
| CCO[C@@H](Cc1ccc(OCCn2c(C)ccc2-c2ccc(SC)cc2)cc1)C(=O)O.OCCN1CCCC1 [Epolamine salt of Formula (I)] | – | – | – | – | 110.5 ± 7.5 | 39.6 ± 3.8 | −60.1 ± 2.6 | −64.2 ± 2.3 | – |
| CCO[C@@H](Cc1ccc(OCCn2c(C)ccc2-c2ccc(SC)cc2)cc1)C(=O)O.NCCO [Ethanolamine salt of Formula (I)] | – | – | – | – | 110.5 ± 7.5 | 42.5 ± 3.6 | −56.9 ± 3.6 | −61.3 ± 3.2 | – |
| CCO[C@@H](Cc1ccc(OCCn2c(C)ccc2-c2ccc(SC)cc2)cc1)C(=O)O.c1c[nH]cn1 [Imidazole salt of Formula (I), (S) 2-Ethoxy-3-(4-{2-[2-methyl-5-(4-methylthiophenyl)-pyrrol-1-yl]-ethoxy}-phenyl)-propionic acid imidazole salt] | – | – | – | – | 110.5 ± 7.2 | 43.5 ± 2.5 | −55.3 ± 3.6 | −59.8 ± 3.2 | – |
| CN(C)C(=N)N=C(N)N [Metformin, 1,1-Dimethylbiguanidine, reference compound] | – | – | – | – | – | – | – | – | % improvement in AUC glucose vs control ([2]; OGTT after 14 days of treatment): 20.4%; AUC Glucose ([2]; OGTT day 14, fasting, glucose load 2 gm/kg): 45255.9 mg·min/dL |
| CCO[C@@H](Cc1ccc(OCCn2c(C)ccc2-c2ccc(SC)cc2)cc1)C(=O)[O-].[K+] [Potassium Salt of formula (I), (S) 2-Ethoxy-3-(4-{2-[2-methyl-5-(4-methylthiophenyl)-pyrrol-1-yl]-ethoxy}-phenyl)-propionic acid potassium salt] | – | – | – | – | – | – | – | – | Serum triglycerides (mg/dl) Day 0 [1, 4]: 119.0 ± 9.2 mg/dL; Serum triglycerides (mg/dl) Day 6 [1, 4]: 44.8 ± 4.6 mg/dL; % Change Vs control ([1]; Table 3, oral): −60.2 ± 6.0%; % Change Day 6 vs Day 0 [1, 4]: −60.7 ± 6.0% |
| CCO[C@@H](Cc1ccc(OCCn2c(C)ccc2-c2ccc(SC)cc2)cc1)C(=O)[O-].[Na+] [Sodium Salt of Formula (I), (S) 2-Ethoxy-3-(4-{2-[2-methyl-5-(4-methylthiophenyl)-pyrrol-1-yl]-ethoxy}-phenyl)-propionic acid sodium salt] | – | – | – | – | – | – | – | – | Serum triglycerides (mg/dl) Day 0 [1, 4]: 119.4 ± 11.9 mg/dL; Serum triglycerides (mg/dl) Day 6 [1, 4]: 41.6 ± 1.8 mg/dL; % Change Vs control ([1]; Table 3, oral): −63.1 ± 3.6%; % Change Day 6 vs Day 0 [1, 4]: −63.5 ± 3.6% |
| CCO[C@@H](Cc1ccc(OCCn2c(C)ccc2-c2ccc(SC)cc2)cc1)C(=O)O.OCCN(CCO)CCO [Triethanolamine salt of Formula (I)] | – | – | – | – | 110.3 ± 7.5 | 33.0 ± 2.6 | −65.3 ± 4.4 | −68.9 ± 3.9 | – |
| (S) 2-Ethoxy-3-(4-{2-[2-methyl-5-(4-methylthiophenyl)-pyrrol-1-yl]-ethoxy}-phenyl)-propionic acid Calcium Salt [Calcium Salt of Formula (I)] | – | – | – | – | – | – | – | – | Serum triglycerides (mg/dl) Day 0 [1, 4]: 119.2 ± 11.1 mg/dL; Serum triglycerides (mg/dl) Day 6 [1, 4]: 38.8 ± 3.2 mg/dL; % Change Vs control ([1]; Table 3, oral): −66.4 ± 2.5%; % Change Day 6 vs Day 0 [1, 4]: −66.8 ± 2.5% |
| (S) 2-Ethoxy-3-(4-{2-[2-methyl-5-(4-methylthiophenyl)-pyrrol-1-yl]-ethoxy}-phenyl)-propionic acid Dibenzylamine salt [Dibenzylamine salt of Formula (I)] | 91.0 ± 6.7 | 42.1 ± 2.9 | −54.4 ± 5.8 | −51.8 ± 6.1 | – | – | – | – | – |
| (S) 2-Ethoxy-3-(4-{2-[2-methyl-5-(4-methylthiophenyl)-pyrrol-1-yl]-ethoxy}-phenyl)-propionic acid L-Lysine salt [L-lysine salt of Formula (I)] | 91.2 ± 6.8 | 48.7 ± 3.3 | −48.7 ± 3.6 | −45.8 ± 3.8 | – | – | – | – | – |
| (S) 2-Ethoxy-3-(4-{2-[2-methyl-5-(4-methylthiophenyl)-pyrrol-1-yl]-ethoxy}-phenyl)-propionic acid L-arginine salt [L-arginine salt of Formula (I)] | 91.6 ± 7.9 | 37.2 ± 2.1 | −60.2 ± 3.9 | −58.0 ± 4.2 | – | – | – | – | – |
| (S) 2-Ethoxy-3-(4-{2-[2-methyl-5-(4-methylthiophenyl)-pyrrol-1-yl]-ethoxy}-phenyl)-propionic acid Meglumine salt [Maglumine salt of Formula (I)] | – | – | – | – | 110.6 ± 9.1 | 32.4 ± 1.5 | −66.5 ± 2.5 | −70.0 ± 2.2 | – |
| (S) 2-Ethoxy-3-(4-{2-[2-methyl-5-(4-methylthiophenyl)-pyrrol-1-yl]-ethoxy}-phenyl)-propionic acid Tromethamine salt [Tromethamine salt of Formula (I)] | 91.2 ± 7.8 | 47.9 ± 4.9 | −46.9 ± 8.5 | −43.9 ± 9.0 | – | – | – | – | – |
| (S) 2-Ethoxy-3-(4-{2-[2-methyl-5-(4-methylthiophenyl)-pyrrol-1-yl]-ethoxy}-phenyl)-propionic acid Zinc Salt [Zinc Salt of Formula (I)] | – | – | – | – | – | – | – | – | Serum triglycerides (mg/dl) Day 0 [1, 4]: 119.1 ± 7.6 mg/dL; Serum triglycerides (mg/dl) Day 6 [1, 4]: 68.6 ± 7.5 mg/dL; % Change Vs control ([1]; Table 3, oral): −42.0 ± 4.2%; % Change Day 6 vs Day 0 [1, 4]: −42.7 ± 4.2% |
| (S) 2-Ethoxy-3-(4-{2-[2-methyl-5-(4-methylthiophenyl)-pyrrol-1-yl]-ethoxy}-phenyl)-propionic acid benzylamine salt [Benzylamine salt of Formula (I)] | 91.1 ± 10.8 | 36.5 ± 4.0 | −60.2 ± 5.8 | −57.9 ± 6.2 | – | – | – | – | – |
| (S) 2-Ethoxy-3-(4-{2-[2-methyl-5-(4-methylthiophenyl)-pyrrol-1-yl]-ethoxy}-phenyl)-propionic acid piperazine salt [Piperazine salt of Formula (I)] | 91.0 ± 6.5 | 44.1 ± 1.9 | −52.8 ± 3.7 | −50.2 ± 4.0 | – | – | – | – | – |
| Benzenepropanoic acid, α-ethoxy-4-[2-[2-methyl-5-[4-(methylthio) phenyl]-1H -pyrrol-1-yl] ethoxy]-, magnesium salt [Compound (Ia)] | 91.4 ± 8.8 | 37.4 ± 3.2 | −60.5 ± 3.5 | −58.3 ± 3.7 | 111.1 ± 8.4 | 36.9 ± 2.9 | −61.5 ± 4.6 | −65.5 ± 4.2 | Serum triglycerides (mg/dl) Day 0 [1, 4]: 117.7 ± 13.8 mg/dL; Serum triglycerides (mg/dl) Day 6 [1, 4]: 38.2 ± 4.1 mg/dL; % Change Vs control ([1]; Table 3, oral): −66.1 ± 4.2%; % Change Day 6 vs Day 0 [1, 4]: −66.5 ± 4.1% |
